Data on 13 compounds can be found in PMC10786919, “Design-rules for stapled peptides with in vivo activity and their application to Mdm2/X antagonists” (Nature Communications, 2024).

Positions of bridges follow the written chain, without caps; N, C: chain ends. Non-standard residues stand in square brackets, D forms with d. Residues, ends and D or L forms follow the SMILES beside them. 2Nal = N[C@@H](Cc1ccc2ccccc2c1)C(=O)O; tBuAla = CC(C)(C)C[C@H](N)C(=O)O; R8 = C=CCCCCCC[C@@](C)(N)C(=O)O; R5 = C=CCCC[C@@](C)(N)C(=O)O; S5 = C=CCCC[C@](C)(N)C(=O)O; Aib = CC(C)(N)C(=O)O

Usually EC50 stands for the concentration at which the effect is half-maximal.

Format in all cases: cell-based
Data set [1] has as its system Jump-In T-REx CHO-K1 BLA cells. Description: cells. The following applies: 0% FBS 4Hr; for EC50: read-out: TETCHO: Counterscreen EC50. On the procedure: This assay was based on Jump-In™ T-REx™ CHO-K1 BLA cells containing a stably integrated β-lactamase under the control of an inducible cytomegalovirus (CMV) promoter. Cells were maintained in Dulbecco’s […] Eagle Medium (DMEM) with 10% fetal bovine serum (FBS), Blasticidin, and Penicillin/Streptomycin and then transferred to 1.5 ml freezing vials and stored under liquid nitrogen in growth media containing 5% DMSO. […] Cells were seeded into a 384-well plate at a density of 4000 cells per well. Peptides were then dispensed to each well using a liquid handler, ECHO 555 and incubated for 16 h. The final working concentration of DMSO was 0.5%. β-lactamase activity was detected using the ToxBLAzer Dual Screen (Invitrogen), as per the manufacturer’s instructions. Measurements were carried out using the Envision multiplate reader (Perkin–Elmer). Counterscreen activity was defined as the amount of β-lactamase activity induced by tetracycline. Measurements were taken a minimum of three times (biological replicates) and values are reported as geometric means of the replicates.
In general terms: Counterscreens check selectivity or assay interference.

Data set [2] deals with p53 responsive β-lactamase reporter in HCT116 cells. In words: cells. The following applies: 0% FBS 4Hr; read-out: p53 reporter assay EC50. A digest of the protocol: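 Read-out used the ToxBLAzer Dual Screen for β-lactamase driven by a stably integrated p53-responsive reporter. Assay: 8000 HCT116 cells per well at 0.5% final DMSO. Reported numbers are geometric means over a minimum of three biological replicates.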
A general note: In a reporter assay the amount or activity of a reporter protein is the signal.

Data set [3] can be described thus: Lactate dehydrogenase (LDH) release assay. The following applies: LDH: Cytotoxicity assay EC50. In outline: (§1)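 Read-out was lactate dehydrogenase release, reflecting loss of membrane integrity, in reporter-engineered HCT116 cells (p53-responsive β-lactamase) seeded at 8000 cells per well. Final DMSO was 0.5%, and reported values are geometric means from three or more biological repeats.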

The test system of the next data set is HCT116 cells. Description: Lactate dehydrogenase (LDH) release assay. A digest of the protocol:
as §1

Regarding `CC(=O)N[C@H](C(=O)N[C@@H](CO)C(=O)N[C@@H](Cc1ccccc1)C(=O)NC(C)(C)C(=O)N[C@@H](CCC(=O)O)C(=O)N[C@@H](Cc1ccc(O)cc1)C(=O)N[C@@H](Cc1c[nH]c2ccccc12)C(=O)N[C@@H](C)C(=O)N[C@@H](CC(C)C)C(=O)N[C@@H](CC(C)(C)C)C(=O)NC(C)(C)C(N)=O)[C@@H](C)O` [MP-155] (Ac-TSF[Aib]EYWAL[tBuAla][Aib]-NH2), the “TETCHO: Counterscreen % Effect” value in data set [1] is given as -0.6205%. Moreover, the EC50 was over 50 µM in data set [1], 12.4 µM in data set [2] and over 50 µM in data set [3]. For the same compound, in the data set with HCT116 cells, the “LDH: Cytotoxicity assay % Effect” value is on record as -0.2131%.
Regarding `CC(=O)N[C@H](C(=O)N[C@@H](CO)C(=O)N[C@@H](Cc1ccc2ccccc2c1)C(=O)NC(C)(C)C(=O)N[C@@H](CCC(=O)O)C(=O)N[C@@H](Cc1ccc(O)cc1)C(=O)N[C@@H](Cc1c[nH]c2ccccc12)C(=O)N[C@@H](C)C(=O)N[C@@H](CC(C)C)C(=O)N[C@@H](CC(C)C)C(=O)NC(C)(C)C(N)=O)[C@@H](C)O` [MP-161] (Ac-TS[2Nal][Aib]EYWALL[Aib]-NH2), the “TETCHO: Counterscreen % Effect” value in data set [1] came out at 26.11%. In addition, the values for the EC50 in data set [1], in data set [2] and in data set [3] were 19.4 µM, 6.65 µM and over 50 µM, respectively. For the same compound, in the data set with HCT116 cells, the “LDH: Cytotoxicity assay % Effect” value was -0.5798%.
On the same counts, the results for `CC(=O)N[C@H](C(=O)N[C@@H](CO)C(=O)N[C@@H](Cc1ccccc1)C(=O)N[C@]1(C)CCCCCCC=CCCC[C@@](C)(C(=O)O)NC(=O)[C@H](CC(C)C)NC(=O)[C@H](CC(C)C)NC(=O)[C@H](C)NC(=O)[C@H](Cc2c[nH]c3ccccc23)NC(=O)[C@H](Cc2ccc(O)cc2)NC(=O)[C@H](CCC(=O)O)NC1=O)[C@@H](C)O` [MP-162] are 18.54%, 46.9 µM, 36.2 µM, over 50.7 µM and 20.08%.
On to `CC(=O)N[C@H](C(=O)N[C@@H](CO)C(=O)N[C@@H](Cc1ccccc1)C(=O)N[C@]1(C)CCCCCCC=CCCC[C@@](C)(C(N)=O)NC(=O)[C@H](CC(C)C)NC(=O)[C@H](CC(C)C)NC(=O)[C@H](C)NC(=O)[C@H](Cc2c[nH]c3ccccc23)NC(=O)[C@H](Cc2ccc(O)cc2)NC(=O)[C@H](CCC(N)=O)NC1=O)[C@@H](C)O` [MP-163] (Ac-TSF[R8]QYWALL[S5]-NH2; staple 4-11), for which, in data set [1], the “TETCHO: Counterscreen % Effect” value is 21.33%. The values for the EC50 in data set [1], in data set [2] and in data set [3] were over 50 µM, 11.5 µM and over 50 µM, respectively. Moreover, in the data set on HCT116 cells, the “LDH: Cytotoxicity assay % Effect” value is given as 6.049%.
Turning to `CC(=O)N[C@H](C(=O)N[C@@H](CO)C(=O)N[C@@H](Cc1ccccc1)C(=O)N[C@]1(C)CCCCCCC=CCCC[C@@](C)(C(=O)NCCCCCC(=O)N[C@@H](CCCCN)C(N)=O)NC(=O)[C@H](CC(C)C)NC(=O)[C@H](CC(C)C)NC(=O)[C@H](C)NC(=O)[C@H](Cc2c[nH]c3ccccc23)NC(=O)[C@H](Cc2ccc(O)cc2)NC(=O)[C@H](CCC(=O)O)NC1=O)[C@@H](C)O` [MP-164], the “TETCHO: Counterscreen % Effect” value in data set [1] came to 0.7814%. In addition, the figures for the concentration for a half-maximal effect (EC50) in data set [1], in data set [2] and in data set [3] were over 50 µM, 7.83 µM and over 50 µM, respectively. In the data set on HCT116 cells, the “LDH: Cytotoxicity assay % Effect” value came out at 4.255%.
For the compound `CC(=O)N[C@H](C(=O)N[C@@H](CO)C(=O)N[C@@H](Cc1ccccc1)C(=O)N[C@]1(C)CCCC=CCCC[C@](C)(C(=O)N[C@@H](CC(C)C)C(=O)N[C@@H](CC(C)C)C(=O)N[C@@H](CO)C(=O)N[C@@H](CCC(=O)O)C(=O)N[C@@H](CC(N)=O)C(=O)N[C@@H](Cc2ccccc2)C(N)=O)NC(=O)[C@H](Cc2c[nH]c3ccccc23)NC(=O)[C@H](Cc2ccc(O)cc2)NC(=O)[C@H](CCC(=O)O)NC1=O)[C@@H](C)O` [MP-167] (Ac-TSF[R5]EYW[R5]LLSENF-NH2; staple 4-8), in data set [1], the “TETCHO: Counterscreen % Effect” value is 22.82%. Also, the results for the EC50 in data set [1], in data set [2] and in data set [3] were 12.1 µM, 8.78 µM and 26 µM, respectively. Besides, the “LDH: Cytotoxicity assay % Effect” value in the data set with HCT116 cells stood at 34.73%.
On the same counts, the results for `CC(=O)N[C@@H](CCCCN)C(=O)N[C@@H](CCCCN)C(=O)N[C@H](C(=O)N[C@@H](CO)C(=O)N[C@@H](Cc1ccccc1)C(=O)N[C@]1(C)CCCCCCC=CCCC[C@@](C)(C(=O)N[C@@H](CCC(=O)O)C(N)=O)NC(=O)[C@H](CC(C)(C)C)NC(=O)[C@H](CC(C)C)NC(=O)[C@H](C)NC(=O)[C@H](Cc2c[nH]c3ccccc23)NC(=O)[C@H](Cc2ccc(O)cc2)NC(=O)[C@H](CCC(=O)O)NC1=O)[C@@H](C)O` [MP-1159] (Ac-KKTSF[R8]EYWAL[tBuAla][S5]E-NH2; staple 6-13) are 44.44%, 49.2 µM, 5.08 µM, over 50 µM and -1.606%.
On the same counts, the results for `CC(=O)N[C@H](C(=O)N[C@@H](CO)C(=O)N[C@@H](Cc1ccccc1)C(=O)N[C@]1(C)CCCCCCC=CCCC[C@@](C)(C(=O)N[C@@H](CCC(=O)O)C(=O)N[C@@H](CC(N)=O)C(=O)N[C@@H](Cc2ccccc2)C(N)=O)NC(=O)[C@H](CC(C)C)NC(=O)[C@H](CC(C)C)NC(=O)[C@H](C)NC(=O)[C@H](Cc2c[nH]c3ccccc23)NC(=O)[C@H](Cc2ccc(O)cc2)NC(=O)[C@H](CCC(=O)O)NC1=O)[C@@H](C)O` [MP-1169] are 11.25%, over 50 µM, 5.34 µM, 34.1 µM and 37.3%.
On the same counts, the results for `CC(=O)N[C@H](C(=O)N[C@@H](CO)C(=O)N[C@@H](Cc1ccccc1)C(=O)N[C@]1(C)CCCCCCC=CCCC[C@@](C)(C(=O)N[C@@H](CCC(=O)O)C(=O)N[C@@H](CC(N)=O)C(=O)N[C@@H](Cc2ccc(O)cc2)C(N)=O)NC(=O)[C@H](CC(C)C)NC(=O)[C@H](CC(C)C)NC(=O)[C@H](C)NC(=O)[C@H](Cc2c[nH]c3ccccc23)NC(=O)[C@H](Cc2ccc(O)cc2)NC(=O)[C@H](CCC(=O)O)NC1=O)[C@@H](C)O` [MP-1170] are 61.75%, 36.8 µM, 16.7 µM, over 50 µM and 6.762%.
Turning to `CC(=O)N[C@H](C(=O)N[C@@H](CO)C(=O)N[C@@H](Cc1ccccc1)C(=O)N[C@]1(C)CCCC=CCCC[C@](C)(C(=O)N[C@@H](CC(C)C)C(=O)N[C@@H](CC(C)C)C(=O)N2CCC[C@H]2C(=O)N[C@@H](CCC(N)=O)C(=O)N[C@@H](CC(N)=O)C(=O)N[C@@H](Cc2ccccc2)C(N)=O)NC(=O)[C@H](Cc2c[nH]c3ccccc23)NC(=O)[C@H](Cc2ccc(O)cc2)NC(=O)[C@H](CCC(=O)O)NC1=O)[C@@H](C)O` [MP-1173] (Ac-TSF[R5]EYW[R5]LLPQNF-NH2; staple 4-8), in data set [1], the “TETCHO: Counterscreen % Effect” value is 47.5%. The half-maximal effective concentration (EC50) is 28.3 µM in data set [1], 12.5 µM in data set [2] and over 50 µM in data set [3]. In addition, the “LDH: Cytotoxicity assay % Effect” value in the data set on HCT116 cells is recorded as 16.65%.
On the same counts, the results for `CC(=O)N[C@H](C(=O)N[C@@H](CO)C(=O)N[C@@H](Cc1ccccc1)C(=O)N[C@]1(C)CCCC=CCCC[C@](C)(C(=O)N[C@@H](CC(C)C)C(=O)N[C@@H](CC(C)C)C(=O)N2CCC[C@H]2C(N)=O)NC(=O)[C@H](Cc2c[nH]c3ccccc23)NC(=O)[C@H](Cc2ccc(O)cc2)NC(=O)[C@H](CCC(=O)O)NC1=O)[C@@H](C)O` [MP-1174] (Ac-TSF[R5]EYW[R5]LLP-NH2; staple 4-8) are 7.183%, over 50 µM, 18.7 µM, over 50 µM and 2.374%.
On the same counts, the results for `CC(=O)N[C@H](C(=O)N[C@@H](CO)C(=O)N[C@@H](Cc1ccccc1)C(=O)NC(C)(C)C(=O)N[C@@H](CCC(=O)O)C(=O)N[C@@H](Cc1ccc(O)cc1)C(=O)N[C@@H](Cc1c[nH]c2ccccc12)C(=O)N[C@@H](C)C(=O)N[C@@H](CC(C)C)C(=O)N[C@@H](CC(C)C)C(=O)NC(C)(C)C(=O)N[C@@H](CCC(=O)O)C(N)=O)[C@@H](C)O` [MP-1176] are -0.7808%, over 50 µM, over 50 µM, over 50 µM and 12.95%.
As for `CC(=O)N[C@@H](CCCNC(=N)N)C(=O)N[C@@H](CCCNC(=N)N)C(=O)N[C@@H](CCCNC(=N)N)C(=O)NCCCCCC(=O)N[C@H](C(=O)N[C@@H](CO)C(=O)N[C@@H](Cc1ccccc1)C(=O)N[C@]1(C)CCCCCCC=CCCC[C@@](C)(C(N)=O)NC(=O)[C@H](CC(C)C)NC(=O)[C@H](CC(C)C)NC(=O)[C@H](C)NC(=O)[C@H](Cc2c[nH]c3ccccc23)NC(=O)[C@H](Cc2ccc(O)cc2)NC(=O)[C@H](CCC(=O)O)NC1=O)[C@@H](C)O` [MP-1177], the “TETCHO: Counterscreen % Effect” value in data set [1] turned out to be 50.69%. The EC50 in data set [1] is 17.6 µM; in data set [2], 8.42 µM; in data set [3], 31.8 µM. The “LDH: Cytotoxicity assay % Effect” value with HCT116 cells came to 51.96%.
